Target: T1, ΔF508-CFTR (Homo sapiens, UniProt P13569, DEL508-508)
T1 construct: expressed in transfected cells; host or cells: NIH3T3 mouse fibroblasts, stably expressing
Assay: Membrane potential optical methods for assaying ΔF508-CFTR modulation properties of compounds
Format: cell-based
Details: NIH3T3 cells expressing ΔF508-CFTR
From the text: Assays for Detecting and Measuring ΔF508-CFTR Correction Properties of Compounds
Membrane potential optical methods for assaying ΔF508-CFTR modulation properties of compounds
The optical membrane potential assay utilized voltage-sensitive FRET sensors described by Gonzalez and Tsien (See, Gonzalez, J. E. and R. Y. Tsien (1995) “Voltage sensing by fluorescence resonance energy transfer in single cells” Biophys J 69(4): 1272-80, and Gonzalez, J. E. and R. Y. Tsien (1997) “Improved indicators of cell membrane potential that use fluorescence resonance energy transfer” Chem Biol 4(4): 269-77) in combination with instrumentation for measuring fluorescence changes such as the Voltage/Ion Probe Reader (VIPR) (See, Gonzalez, J. E., K. Oades, et al. (1999) “Cell-based assays and instrumentation for screening ion-channel targets” Drug Discov Today 4(9): 431-439).
These voltage sensitive assays are based on the change in fluorescence resonant energy transfer (FRET) between the membrane-soluble, voltage-sensitive dye, DiSBAC2(3), and a fluorescent phospholipid, CC2-DMPE, which is attached to the outer leaflet of the plasma membrane and acts as a FRET donor. Changes in membrane potential (Vm) cause the negatively charged DiSBAC2(3) to redistribute across the plasma membrane and the amount of energy transfer from CC2-DMPE changes accordingly. The changes in fluorescence emission were monitored using VIPR™ II, which is an integrated liquid handler and fluorescent detector designed to conduct cell-based screens in 96- or 384-well microtiter plates.
1. Identification of Correction Compounds
To identify small molecules that correct the trafficking defect associated with EF508-CFTR; a single-addition HTS assay format was developed. The cells were incubated in serum-free medium for 16 hrs at 37° C. in the presence or absence (negative control) of test compound. As a positive control, cells plated in 384-well plates were incubated for 16 hrs at 27° C. to “temperature-correct” ΔF508-CFTR. The cells were subsequently rinsed 3× with Krebs Ringers solution and loaded with the voltage-sensitive dyes. To activate ΔF508-CFTR, 10 μM forskolin and the CFTR potentiator, genistein (20 μM), were added along with Cl^−-free medium to each well. The addition of Cl^−-free medium promoted Cl^−-efflux in response to ΔF508-CFTR activation and the resulting membrane depolarization was optically monitored using the FRET-based voltage-sensor dyes.
2. […]
To identify potentiators of ΔF508-CFTR, a double-addition HTS assay format was developed. […] The extracellular Cl^−-concentration following both additions was 28 mM, which promoted Cl^−-efflux in response to ΔF508-CFTR activation and the resulting membrane depolarization was optically monitored using the FRET-based voltage-sensor dyes. […]

T1 sequence (P13569 with tags, fused parts or gaps DEL508-508): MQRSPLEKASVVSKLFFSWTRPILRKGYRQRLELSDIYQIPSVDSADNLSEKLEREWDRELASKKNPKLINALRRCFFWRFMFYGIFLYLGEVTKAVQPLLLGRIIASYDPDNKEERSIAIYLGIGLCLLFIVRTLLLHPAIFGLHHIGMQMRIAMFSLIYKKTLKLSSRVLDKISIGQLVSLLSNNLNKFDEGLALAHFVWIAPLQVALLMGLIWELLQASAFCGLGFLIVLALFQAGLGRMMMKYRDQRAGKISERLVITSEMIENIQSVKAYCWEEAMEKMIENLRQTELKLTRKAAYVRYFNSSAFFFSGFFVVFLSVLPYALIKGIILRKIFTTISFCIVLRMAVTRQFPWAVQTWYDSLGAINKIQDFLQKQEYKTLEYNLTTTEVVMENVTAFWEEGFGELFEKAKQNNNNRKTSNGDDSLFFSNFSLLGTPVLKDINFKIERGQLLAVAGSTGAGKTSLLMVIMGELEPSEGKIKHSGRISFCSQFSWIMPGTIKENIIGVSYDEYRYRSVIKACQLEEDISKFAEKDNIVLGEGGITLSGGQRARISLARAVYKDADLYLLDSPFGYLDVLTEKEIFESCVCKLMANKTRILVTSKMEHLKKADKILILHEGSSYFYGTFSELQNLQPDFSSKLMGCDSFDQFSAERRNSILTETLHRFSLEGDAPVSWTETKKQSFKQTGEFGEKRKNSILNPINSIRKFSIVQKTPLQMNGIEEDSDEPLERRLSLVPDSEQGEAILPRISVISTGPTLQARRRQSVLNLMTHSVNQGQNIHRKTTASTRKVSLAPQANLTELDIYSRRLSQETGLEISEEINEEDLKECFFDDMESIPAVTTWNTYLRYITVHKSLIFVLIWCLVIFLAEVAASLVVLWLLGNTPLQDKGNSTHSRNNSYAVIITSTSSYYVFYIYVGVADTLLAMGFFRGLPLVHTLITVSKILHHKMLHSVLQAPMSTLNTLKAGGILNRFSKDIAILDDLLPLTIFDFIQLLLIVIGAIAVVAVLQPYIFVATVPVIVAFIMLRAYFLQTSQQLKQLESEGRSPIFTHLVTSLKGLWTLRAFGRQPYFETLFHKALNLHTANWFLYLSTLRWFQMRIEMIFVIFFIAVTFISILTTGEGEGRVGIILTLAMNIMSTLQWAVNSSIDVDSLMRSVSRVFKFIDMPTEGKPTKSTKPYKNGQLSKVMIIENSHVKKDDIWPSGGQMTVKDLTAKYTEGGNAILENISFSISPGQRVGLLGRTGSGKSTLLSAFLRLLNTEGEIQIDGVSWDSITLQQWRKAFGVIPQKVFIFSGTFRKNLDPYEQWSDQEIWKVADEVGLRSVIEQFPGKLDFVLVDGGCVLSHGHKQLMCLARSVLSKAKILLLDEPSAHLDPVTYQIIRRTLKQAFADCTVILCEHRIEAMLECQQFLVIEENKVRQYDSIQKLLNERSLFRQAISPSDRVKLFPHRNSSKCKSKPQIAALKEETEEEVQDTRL

| EC50 [nM] | Percent Efficacy | Compound |
| --- | --- | --- |
| ≤ 2000 | +++ (100.0% < +++) | COc1ccc(C2(C(=O)Nc3ccc(C)c(-c4cccc(C(=O)O)c4)n3)CC2)cc1 [compound 1] |
| ≤ 2000 | +++ (100.0% < +++) | Cc1ccc(NC(=O)C2(c3ccc4c(c3)CCO4)CC2)nc1-c1cccc(C(=O)O)c1 [compound 2] |
